Assay results reported in US20160113895A1, “Novel Use of Adapalene in Treating Esophageal Cancer and Gastrointestinal Stromal Tumor” (Biodelight Biotech Inc., priority 2013, published 2016).

Tests used:
A549 [1] = experiment: 2D cell proliferation assay (Alamar Blue), A549; type: cell-based, human; settings: Homo sapiens; 2D, A549, 72 h; read-out: IC50
Source text: Nsl-8 was subjected to 2D cell proliferation assays using four NSCLC cell lines (A549 (human adenocarcinomic alveolar basal epithelial cells with k-ras gene mutation), H1299 (human non-small cell lung carcinoma cell line with p53 mutation), H460 (human non-small cell lung carcinoma cell line with k-ras gene mutation), and HCC827 (human NSCLC cells with EGFR mutation of deletion from E746 to A750)) and the results were presented in Table 2. There were eight concentrations used for each drug for determining its IC50. […]. Actinomycin D was a chemotherapeutic drug simply used as a quality control for all the experiments.
(§1) In the 2D cell proliferation assay, cells were cultured in DMEM containing 10% FCS and Penicillin/Streptomycin. For the assays, cells were seeded in 150 μL medium on a 96-well cell culture plate and incubated at 37° C. overnight before the compounds were added. Compounds were prepared as predilution which was 16 fold concentrated to the final assay concentration. A day after cell seeding, 10 μL of prediluted compounds was added to the cells (1:16 dilution). Treatment of cells with 0.1% DMSO or 1% DMSO (for the two top concentrations of nsl-8) and 1.0E-05 M Staurosporine was served as high control (100% viability) and low control (0% viability), respectively. Measurement of the impact of compounds on cell viability was performed as follows: 5000 cells (A549 and HCC827) or 2500 cells (H1299 and H460) were seeded in the inner wells of 96-well-plates in 150 μL complete medium. Next day, compounds were added to the medium to reach the final concentration and then incubated at 37° C. in 5% or 10% CO2 depending on the medium for 72 h. Subsequently 10 μL Alamar Blue reagent was added and fluorescence at 590 nm was measured after 5 h incubation at 37° C. in 5% CO2 using a fluorometer.
(§2) Raw data were converted into percent cell viability relative to high control (solvent 0.1% DMSO or 1% DMSO for the two top concentrations of drug nsl-8) and low control (1.0E-05 M Staurosporine), which were set to 100% and 0%, respectively.

A549 [2] = experiment: 3D cell proliferation assay (soft agar), A549; type: cell-based, human; settings: Homo sapiens, 3D soft agar
Description: (§3) Drug nsl-8 was further subjected to a 3D cell proliferation assay for assessing its potential in inhibiting the growth of NSCLC tumors. The same four NSCLC cell lines used in 2D proliferation assays were grown in soft agar and the drug was added after the agar has solidified. The drug added cells were then incubated several days until colonies have formed in the solvent control. Subsequently, Alamar Blue which was a cell viability reagent was added and the corresponding fluorescence released was measured as an indirect quantification of colony growth in soft agar.
(§4) For each cell line, some 96 well culture plates were prepared. 100 μL of the soft agar bottom layer (0.6% final concentration in complete medium) was poured and left to solidify. 50 μL of the soft agar top layer (0.4% final concentration) containing the corresponding cells and cell number were then added on top, solidified and such 96 well plates were incubated overnight at 37° C. in 10% CO2. Next day, drugs were added at indicated final concentrations into the inner wells of the plate. Subsequently, the assays were incubated in cell culture incubators for the indicated period of time. Finally, the assays were developed using Alamar Blue and upon 3-5 h of incubation at 37 ° C. fluorescence intensity was determined (excitation: 560 nm, emission: 590 nm). […]

HCC827 [3] = experiment: 3D cell proliferation assay (soft agar), HCC827; type: cell-based, human; settings: Homo sapiens, 3D soft agar
Description: as §3, §4

HCC827 [4] = experiment: 2D cell proliferation assay (Alamar Blue), HCC827; type: cell-based, human; settings: Homo sapiens, HCC827, 72 h
Description: There were eight concentrations used for each drug for determining its IC50. […] Actinomycin D was a chemotherapeutic drug simply used as a quality control for all the experiments.
as §1, with “Compounds were prepared as predilution which was 16 fold concentrated to the final assay concentration.” left out, “h.” for “h. Subsequently 10 μL Alamar Blue reagent was added and fluorescence at 590 nm was measured after 5 h incubation at 37° C. in 5% CO2 using a fluorometer.”
as §2

A549 implanted tumors = experiment: Subcutaneous A549 xenograft model, groups 1a/1b, i.p.; type: in vivo, BALB/c nude mice; settings: 40 mg/kg i.p. once daily, after treatment days 48-52
Description: All experiments were performed using either 5-6 weeks old female BALB/c nude mice (approximate weight: 16-20 g) (A549) or female SCID mice (approximate weight: 16-20 g) (A549 and HCC827). […] Animal behaviour was monitored daily.
At necropsy, animals were killed by cervical dislocation. Primary tumor weights and volumes were determined.
The treatment for groups 1a and 1b (A549 model) animals with drug nsl-8 was started on day 48 and terminated on day 69. The animals were not consecutively treated with nsl-8 during the entire treatment period of 48-68 days. Instead, there was an interruption between treatment days 48-52 and 62-66 (FIG. 4) due to an apparent weight loss observed in the treated animals, an ethical reason which caused the treatment to be suspended. […] However, the animals were able to recover from such a weight loss after several days of cessation of treatment (FIG. 5). After weight loss of treated animals was recovered, a second treatment cycle from days 62-66 was resumed (FIG. 5). This second treatment cycle caused weight loss again (FIG. 5). However, the study groups 1a and 1b were both terminated on day 69 due to the presence of tumor ulceration in some animals. Note that weight loss in animals treated with vehicle was also observed in the final stage of treatment (FIG. 5). We speculated that such a loss might be caused by the presence of 10% DMSO in the prepared vehicle. […]

H460 = experiment: 3D cell proliferation assay (soft agar), H460; type: cell-based, human; settings: Homo sapiens, NCI-H460, 3D soft agar
Description: as §3, §4

IC50 (A549 [1]): 5.4 µM
IC50 (A549 [2]): 990 nM
IC50 (HCC827 [3]): 7.2 µM
IC50 (HCC827 [4]): 11 µM
weight loss in animals (A549 implanted tumors): 16%
IC50 (H460): 4.9 µM
SMILES: COc1ccc(-c2ccc3cc(C(=O)O)ccc3c2)cc1C12CC3CC(CC(C3)C1)C2 [nsl-8, 6-[3-(1-adamantyl)-4-methoxyphenyl]-2-naphthalenecarboxylic acid]
